Results on ten compounds are retold here after patent publication US10221171B2, “Oxathiazole thiazolium Hsp 70 inhibitors” (THE REGENTS OF THE UNIVERSITY OF CALIFORNIA, priority 2015, dated 2019).

The test system of data set [1] is MCF-7. As to the kind of experiment: MTT cell viability assay, MCF-7. It is filed as cell-based. The following applies: for EC50: Table 2; for IC50: read-out: IC50/μM MCF-7. On the technique in general: Tetrazolium dyes change colour on reduction, which living cells bring about.
Data set [2] in a line: Solubility. The data set is classed as physicochemical.
A short description of data set [3]: Microsomal stability. The data set is classed as in vitro ADME.
Data set [4] in a line: Tolerability in mice based on weight. The following applies: daily i.p. 5 mg/kg/day, male CD1 mice. It is filed as in vivo. How it is done:
Analogs were delivered daily to male CD1 mice by i.p. at 5 mg/kg/day. Five mice per group. Error bars represent SEM.

For data set [5], the system named is Hsp70 clients in MCF7 cells. As to the kind of experiment: Western blot of Hsp70 clients in MCF7 cells. The data set is classed as cell-based. The following applies: 24 hrs. How it is done: Cells were treated for 24 hrs with compound, lysed and Western blots performed.
The test system of data set [6] is MDA-MB-231. Nature of the data set: MTT cell viability assay, MDA-MB-231. It is filed as cell-based. The settings on record: Homo sapiens, MDA-MB-231, 72-hour incubation.
The subject of data set [7] is MEF (C57BL/6). As to the kind of experiment: MTT cell viability assay, MEF (C57BL/6). The following applies: for IC50 / EC50: Mus musculus; for EC50: Table 2; for SI MEF/MCF-7: ratio of EC50 MEF to EC50 MCF-7. The data set is classed as cell-based.
For data set [8], the system named is IMR-90. As to the kind of experiment: Cell viability, IMR-90. The data set is classed as cell-based. The settings on record: for EC50: Homo sapiens, IMR-90, Table 2; for SI IMR-90/MCF-7: ratio of EC50 IMR-90 to EC50 MCF-7. How it is done: Cells were then treated with compound at various concentrations in 0.2 mL media. After the 72-hour incubation period, cells were washed in PBS (3×100 μL), and 10 μL MTT reagent was added with 100 μL fresh media. Cells were then incubated for 4 hr in a humidified chamber at 37° C. with 5% CO2. Insoluble formazan crystals were solubilized by addition of 0.1 mL detergent solution (4 hr at room temp., dark). Resulting colored solutions were then quantified at an absorbance of 570 nm.

Data set [9] in a line: Pharmacokinetics in CD1 mice, single i.p. injection, plasma by HPLC. It is filed as in vivo. Here is the method:
A single injection of compound was delivered to CD1 mice by i.p. and the plasma collected at the indicated times. Compound levels were calculated by HPLC, using a standard curve.

Data set [10] deals with multiple myeloma cell lines. As to the kind of experiment: MTT cell viability in multiple myeloma cell lines. The settings on record: cell viability after 48 hrs, percentage of solvent control (1% DMSO). The data set is classed as cell-based. The source says: Results are shown as a percentage of a solvent control (1% DMSO). Results are the average of experiments performed in triplicate. Error bars represent SEM.

In data set [11] the test system is Xenografts of MCF7 cells. Nature of the data set: Hsp70 client destabilization in MCF7 xenografts, western blot. The following applies: 5 mg/kg/day for three days, western blot of tumors. It is filed as in vivo. Here is the method: Xenografts of MCF7 cells were treated by delivery of compound in saline 5 mg/kg/day dosed for three days, after which tumors were harvested for western blot. Results from three separate animals are shown.

[12] abbreviates: 72 h, read-out: IC50/μM MEF (C57BL/6), MTT, 72-hour incubation.
The mark [13] stands for this setting: Homo sapiens, MCF7, MTT, 72-hour incubation.
[14] abbreviates: MTT, 72-hour incubation, read-out: IC50/μM MEF (C57BL/6).

Where two headings read alike, the source gives them in different places.

In the case of `CCn1c(=O)/c(=C2\Sc3cc(Cl)ccc3N2C)s/c1=C\c1scc[n+]1Cc1ccccc1.[Cl-]` [JG-98, reference compound], the EC50 (usually the concentration at which the effect is half-maximal) in [1] turned out to be 0.71 ± 0.22 µM. For the same compound, in data set [2], the solubility (usually the dissolved amount per volume that the medium holds) came out at 31 µM. In data set [3], this compound returned a Microsomal min of 37 min.
In data set [1], `CCn1c(=O)/c(=C2\Sc3cc(Cl)ccc3N2C)s/c1=C\c1scc[n+]1Cc1ccc(Br)s1.[Cl-]` [JG-231, reference compound] returned a 50% effective concentration (EC50) of 0.12 ± 0.01 µM. Moreover, the solubility in data set [2] came to 16 µM. The same compound had a Microsomal min in data set [3] of more than 60 min. Besides, the “tolerated in mice, based on weight” value in data set [4] is on record as “tolerated in mice”. Moreover, the “destabilization of Hsp70 clients (c-Raf and other clients)” value in [5] was “destabilize c-Raf and other clients”.
For `CCn1c(=O)/c(=C2\Sc3cc(Br)ccc3N2C)s/c1=C\c1scc[n+]1Cc1ccc(C(F)(F)F)o1.[Cl-]` [JG-294], the IC50 in data set [1] (Homo sapiens, MCF7, 72 h) amounted to 0.1 ± 0.01 µM; in data set [6], 0.18 ± 0.01 µM; in data set [7] (setting [12]), 3.5 ± 0.4 µM. Further, the EC50 in [1] (Homo sapiens, MCF7) was determined as 0.1 ± 0.01 µM; in [7] it was 3.5 ± 0.4 µM; in data set [8], 9.8 ± 2 µM. The compound further had a Microsomal min in [3] of more than 60 min. Further, in data set [9], the “AUC0-∞/nM × h” value was 2.429 µM·h. For the same compound, in data set [9] (mouse, ip), the time to peak (Tmax) (as a rule, the time from dosing to the highest level) was found to be 2 h. The half-life in [9] (mouse, ip, read-out: t1/2/h (converted)) was 29.8 h. In [4], the “tolerated in mice, based on weight” value is given as “tolerated in mice”.
On to `CCc1ccc2c(c1)S/C(=c1/s/c(=C\c3scc[n+]3Cc3ccc(C(F)(F)F)o3)n(CC)c1=O)N2C.[Cl-]` [JG-300], for which the IC50 came to 0.11 ± 0.01 µM in data set [1] (Homo sapiens, MCF7, 72 h, MTT, 72-hour incubation); 0.1 ± 0.01 µM in [6]; 1.4 ± 0.06 µM in data set [7] (setting [12]). Besides, the EC50 in data set [1] (Homo sapiens, MCF7) amounted to 0.11 ± 0.01 µM; in data set [7] it was 1.4 ± 0.1 µM; in data set [8], 3.3 ± 0.3 µM. In data set [3], this compound yielded a Microsomal min of 37 min.
On to `CCn1c(=O)/c(=C2\Sc3cc(SC)ccc3N2C)s/c1=C\c1scc[n+]1Cc1ccccc1OC(F)(F)F.[Cl-]` [JG-311], for which the IC50 in data set [1] (setting [13]) amounted to 0.098 ± 0.009 µM; in data set [6], 0.14 ± 0.01 µM; in data set [7] (setting [14]) it was 2 ± 0.1 µM. For the same compound, the EC50 was found to be 0.098 ± 0.009 µM in data set [1] (Homo sapiens, MCF7); 2 ± 0.1 µM in data set [7]; 3.5 ± 0.6 µM in [8]. Also, in [7], the “SI MEF/MCF-7” value came out at 20. Besides, the “SI IMR-90/MCF-7” value in [8] is recorded as 35. Besides, the solubility in [2] was 16 µM. The Microsomal min in data set [3] turned out to be 22 min.
In the case of `CCn1c(=O)/c(=C2\Sc3cc(SC)ccc3N2C)s/c1=C\c1scc[n+]1Cc1ccccc1C(F)(F)F.[Cl-]` [JG-312], the figures for the IC50 in [1] (setting [13]), in [6] and in data set [7] (setting [14]) were 0.1 ± 0.01 µM, 0.14 ± 0.01 µM and 3.2 ± 0.2 µM, respectively. Besides, the EC50 was 0.1 ± 0.01 µM in [1] (Homo sapiens, MCF7); 3.2 ± 0.2 µM in [7]; more than 10 µM in data set [8]. The “SI MEF/MCF-7” value in data set [7] amounted to 32. Also, in data set [8], the “SI IMR-90/MCF-7” value is recorded as more than 100. In data set [2], this compound had a solubility of 16 µM. In data set [3], the Microsomal min worked out at 23 min.
As for `CCc1ccc2c(c1)S/C(=c1/s/c(=C\c3scc[n+]3Cc3ccccc3C(=O)OC)n(CC)c1=O)N2C.[Cl-]` [JG-345], the IC50 in data set [1] (Homo sapiens, MCF7, 72 h) was found to be 0.049 ± 0.003 µM; in data set [6], 0.046 ± 0.006 µM; in data set [7] (setting [14]), 1 ± 0.1 µM. Further, the EC50 came out at 0.049 ± 0.003 µM in data set [1] (Homo sapiens, MCF7); 1 ± 0.1 µM in [7]; 3.2 ± 0.7 µM in data set [8]. The Microsomal min in data set [3] came out at 25 min. Besides, the t1/2/h in data set [9] was 11.4 h. The “anti-proliferative activity against multiple myeloma cell lines” value in data set [10] is “anti-proliferative activity”. Besides, the “tolerated in mice, based on weight” value in data set [4] is recorded as “tolerated in mice”. For the same compound, in [5], the “destabilization of Hsp70 clients (c-Raf and other clients)” value was “destabilize c-Raf and other clients”. Moreover, the “destabilization of Hsp70 clients in vivo” value in [11] is on record as “destabilized Hsp70 clients in vivo”.
For `CCn1c(=O)/c(=C2\Sc3cc(SC)ccc3N2C)s/c1=C\c1scc[n+]1Cc1ccccc1SC(F)(F)F.[Cl-]` [JG-356], the figures for the IC50 in data set [1] (setting [13]), in data set [6] and in data set [7] (setting [14]) were 0.089 ± 0.006 µM, 0.09 ± 0.005 µM and 1.9 ± 0.1 µM, respectively. In addition, the EC50 was determined as 0.089 ± 0.006 µM in [1] (Homo sapiens, MCF7); 1.9 ± 0.1 µM in [7]; 1.5 ± 0.1 µM in [8]. Further, the “SI MEF/MCF-7” value in [7] is 21. The “SI IMR-90/MCF-7” value in [8] is 16. Further, the solubility in [2] was 16 µM. Besides, in data set [3], the Microsomal min was determined as 23 min.
On to `CCn1c(=O)/c(=C2\Sc3ccc(OC)cc3N2C)s/c1=C\c1scc[n+]1Cc1c(Cl)cccc1Cl` [JG-403], for which the IC50 in data set [1] (setting [13]) amounted to 0.7 ± 0.08 µM; in data set [6], 0.2 ± 0.01 µM; in data set [7] (setting [14]), 1.2 ± 0.1 µM.
On the same counts, the results for `CCn1c(=O)/c(=C2\Sc3ccc(OC)cc3N2C)s/c1=C\c1scc[n+]1Cc1ccccc1OC` [JG-404] are 0.79 ± 0.1 µM, 0.3 ± 0.03 µM and 1.3 ± 0.1 µM.
